Assay: In vitro skin permeation with human skin, Franz-type diffusion cells
Assay type: in vitro ADME
Settings: solvent/skin penetration enhancer DEET and/or Crotamiton, concentration below saturation, receptor at 32° C.
Procedure: Dermatomed human skin sections were mounted onto the Franz cells and transdermal drug delivery systems mounted on tape backings (1.5 cm^2) were placed on the stratum corneal surface of the skin. Each Franz cell contained 7 ml of ethanol phosphate buffered saline as the receptor medium, maintained at 32° C. At predetermined time intervals 0.7 ml of the receptor solution was sampled and an equal amount replaced. The samples were analysed by High Pressure Liquid Chromatography.

C#C[C@]1(OC(C)=O)CC[C@H]2[C@@H]3CCC4=CC(=O)CC[C@@H]4[C@H]3CC[C@@]21C [Norethisterone Acetate]
skin mass transport: enhanced

C[C@]12CC[C@@H]3c4ccc(O)cc4CC[C@H]3[C@@H]1CC[C@@H]2O [Estradiol]
skin mass transport: enhanced
